# Results: US20220055989A1, “CONDENSED PYRROLES AS NOVEL BROMODOMAIN INHIBITORS” (ALBERT LUDWING UNIVERSITÄT FREIBURG, priority 2018, published 2022)
# pKd: −log10 of the molar value.
# Experiments:
# BRPF1B = molecular target: T1, BRPF1B (Homo sapiens, UniProt P55201); test: Dissociation constant KD BRPF1B; type: binding
# T1 construct: dissociation constants KD for two bromodomains (BRD4(1) and BRPF1B)
# T1 sequence (P55201 628-732 limits assumed): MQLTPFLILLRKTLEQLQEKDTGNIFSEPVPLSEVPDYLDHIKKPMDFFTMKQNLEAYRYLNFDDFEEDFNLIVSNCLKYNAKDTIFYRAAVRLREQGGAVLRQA
# CECR2 = molecular target: T2, CECR2 (Homo sapiens, UniProt Q9BXF3); test: BROMOscan Kd determination CECR2; type: binding
# T2 construct: T7 phage strains displaying bromodomains were grown; host or cells: T7 phage in E. coli derived from BL21
# Method: (§1) Bromodomain profiling was carried out on the basis of BROMOscan™. This platform accounted for the indirect determination of the dissociation constants between 19 bromodomains and the compound of formula (13), by binding competition against a reference immobilized ligand. Compounds that bind the bromodomain prevent its binding to the immobilized ligand thus reducing the amount of protein captured. […] Hits are identified by measuring the amount of bromodomain captured in test versus control samples. Bromodomain assays for Kd determination: T7 phage strains displaying bromodomains were grown in parallel in 24-well blocks in an E. coli host derived from the BL21 strain. E. coli were grown to log-phase and infected with T7 phage from a frozen stock (multiplicity of infection=0.4) and incubated with shaking at 32° C. until lysis (90-150 minutes). The lysates were centrifuged (5,000×g) and filtered (0.2 μm) to remove cell debris. […] The liganded beads were blocked with excess biotin and washed with blocking buffer (SeaBlock (Pierce), 1% BSA, 0.05% Tween 20, 1 mM DTT) to remove unbound ligand and to reduce non-specific phage binding. […] Test compounds were prepared as 1000× stocks in 100% DMSO. Kds were determined using an 11-point 3-fold compound dilution series with one DMSO control point. All compounds for Kd measurements are distributed by acoustic transfer (non-contact dispensing) in 100% DMSO. The compounds were then diluted directly into the assays such that the final concentration of DMSO was 0.09%. All reactions performed in polypropylene 384-well plates. Each was a final volume of 0.02 ml. […] The bromodomain concentration in the eluates was measured by qPCR. […] All compounds for Kd measurements are distributed by acoustic transfer (non-contact dispensing) in 100% DMSO. The compounds were then diluted directly into the assays such that the final concentration of DMSO was 0.09%. Most Kds were determined using a compound top concentration=10,000 nM. If the initial Kd determined was <0.169 nM (the lowest concentration tested), the measurement was repeated with a serial dilution starting at a lower top concentration. Binding Constants (Kds): Binding constants (Kds) were calculated with a standard dose-response curve using the Hill equation: The Hill Slope was set to −1. Curves were fitted using a non-linear least square fit with the Levenberg-Marquardt algorithm.
# BRPF1 = molecular target: T3, BRPF1 (Homo sapiens, UniProt P55201); test: BROMOscan Kd determination BRPF1; type: binding
# T3 construct: T7 phage strains displaying bromodomains were grown; host or cells: T7 phage in E. coli derived from BL21
# T3 sequence (P55201 628-732 limits assumed): T1 sequence (P55201 628-732 limits assumed)
# Method: as §1
# BRD4(1) [1] = molecular target: T4, BRD4(1) (Homo sapiens, UniProt O60885); test: BROMOscan Kd determination BRD4(1); type: binding
# T4 construct: BRD4-BD1 was expressed and purified as described previously; made in house
# Method: as §1
# BRD4(1) [2] = molecular target: T4, BRD4(1); test: Isothermal titration calorimetry, dissociation constant KD BRD4(1); type: binding
# Method: BRD4-BD1 was expressed and purified as described previously (Filippakopoulos et al, (2012), Cell 149(1): […]) with the exception of the final buffer for crystallization and ITC analysis (20 mM Hepes/NaOH pH 7.5, 150 mM NaCl). Crystals were grown in the presence of 3.5 M Na-Formate (pH 7.5) at a protein concentration of 10 mg/ml and a ligand concentration of 2 mM added directly to the protein prior to crystallization from a 100 mM stock solution in DMSO. Data were collected at 100K using either a Rigaku HF-007 rotating anode X-ray generator equipped with VariMaxHF optics and a Saturn944 CCD detector or a mar345 image plate respectively at λ=1.54179 Å or at the PXI beamline at the Swiss Light Source at λ=1.000 Å with a Pilatus detector. Data processing and reduction was done with iMOSFLM (Leslie AGW PH (2007), Evolving Methods for Macromolecular Crystallography 245, 41.51), POINTLESS, and SCALA (Kabsch W (2010) Xds. Acta crystallographica. Section D, Biological crystallography 66(Pt 2):125-132; Bruker (2008) SADABS, SAINT and XPREP (Bruker AXS Inc., Madison, Wis., USA); Collaborative Computational Project N (1994) The CCP4 suite: programs for protein crystallography, Acta crystallographica, Section D, Biological crystallography 50(Pt 5):760-763), or with XDS, XSCALE, XDSCONV (Evans P (2006), Scaling and assessment of data quality, Acta crystallographica, Section D, Biological crystallography 62(Pt 1):72-82), and XPREP (Evans P R (2011), An introduction to data reduction: space-group determination, scaling and intensity statistics, Acta crystallographica, Section D, Biological crystallography 67(Pt 4):282-292).
# Data were obtained in discrete titration experiments with an injection volume of 12 μl per injection. Subsequently, the heats per injection were calculated as integrals and after normalization against the molar concentrations plotted against the molar ratio as implemented in Microcal Origin. Finally, data were fitted according to a single set of sites binding model with
# The dissociation constant Kd, is commonly used to describe the affinity between a ligand L and a protein, i.e. how tightly a ligand binds to a particular protein. The dissociation constant has molar units which correspond to the concentration of ligand at which the binding site on a particular protein is half occupied, i.e. the concentration of the ligand at which the concentration of protein with ligand bound equals the concentration of protein with no ligand bound. The smaller the dissociation constant, the higher the affinity between ligand and protein.
# BRD7 = molecular target: T5, BRD7 (Homo sapiens, UniProt Q9NPI1); test: BROMOscan Kd determination BRD7; type: binding
# T5 construct: T7 phage strains displaying bromodomains were grown; host or cells: T7 phage in E. coli derived from BL21
# T5 sequence (Q9NPI1 131-235 limits assumed): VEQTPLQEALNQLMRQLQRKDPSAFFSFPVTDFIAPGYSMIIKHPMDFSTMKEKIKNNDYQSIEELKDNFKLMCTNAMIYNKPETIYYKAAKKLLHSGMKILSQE
# Method: as §1
# EP300 = molecular target: T6, EP300 (Homo sapiens, UniProt Q09472); test: BROMOscan Kd determination EP300; type: binding
# T6 construct: T7 phage strains displaying bromodomains were grown; host or cells: T7 phage in E. coli derived from BL21
# T6 sequence (Q09472 1049-1156 limits assumed): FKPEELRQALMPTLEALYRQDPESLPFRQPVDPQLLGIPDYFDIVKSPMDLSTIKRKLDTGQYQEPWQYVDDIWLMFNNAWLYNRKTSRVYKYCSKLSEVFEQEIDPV
# Method: as §1
# HL-60 cells = test: GI50 in a culture of HL-60 cells; type: cell-based; details: concentration required to reduce the population of a culture of HL-60 cells by 50%
# BRD9 = molecular target: T7, BRD9 (Homo sapiens, UniProt Q9H8M2); test: BROMOscan Kd determination BRD9; type: binding
# T7 construct: T7 phage strains displaying bromodomains were grown; host or cells: T7 phage in E. coli derived from BL21
# T7 sequence (Q9H8M2 136-240 limits assumed): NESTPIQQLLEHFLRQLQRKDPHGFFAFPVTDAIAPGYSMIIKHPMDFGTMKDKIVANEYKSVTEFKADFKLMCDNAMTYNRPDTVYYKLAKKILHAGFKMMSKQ
# Method: as §1
# P. falciparum cultures = test: Plasmodium falciparum inhibitor treatment for 72 hours, parasitemia by flow cytometry; type: cell-based; details: 100 μm of compound, vs DMSO control, early ring, mid trophozoite and schizont stages
# Method: Plasmodium falciparum Inhibitor Treatment for 72 Hours (One Replication Cycle) P. falciparum cultures were treated for 72 hours with 100 μm of compounds (19) to (22), (24) and (25) or DMSO as control. The cultures were stained for DNA content with fluorescent dye Hoechst 33342 (20 μm) and for RNA content with thiazole orange (1 μm). The double negative population represented uninfected erythrocytes (devoid of DNA and low in RNA content) whereas the P. falciparum infected erythrocytes were gated as early ring, mid trophozoite and late schizont stages based on their DNA and RNA content.
# T2 sequence (Q9BXF3 434-538 limits assumed): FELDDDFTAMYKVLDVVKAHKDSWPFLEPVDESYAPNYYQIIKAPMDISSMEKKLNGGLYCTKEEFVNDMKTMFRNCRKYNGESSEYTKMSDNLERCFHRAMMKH
SMILES,pKd (BRPF1B),pKd (CECR2),pKd (BRPF1),pKd (BRD4(1) [1]),pKd (BRD4(1) [2]),pKd (BRD7),pKd (EP300),pKd (BRD9),further results
"CCN(CC)S(=O)(=O)c1ccc(OC)c(NC(=O)c2[nH]c(C)c3c2CCCCC3=O)c1 [Compound 11, N-(5-(N,N-diethylsulfamoyl)-2-methoxyphenyl)-3-methyl-4-oxo-2,4,5,6,7,8-hexahydrocyclohepta[c]pyrrole-1-carboxamide]",–,5.96,6.38,7.07,6.84,6.60,5.68,6.80,GI50HL60 (HL-60 cells): 1360 nM
"COc1ccc(S(=O)(=O)N2CCCCCC2)cc1NC(=O)c1[nH]c(C)c2c1CCCCC2=O [Compound 12, N-(5-(azepan-1-ylsulfonyl)-2-methoxyphenyl)-3-methyl-4-oxo-2,4,5,6,7,8-hexahydrocyclohepta[c]pyrrole-1-carboxamide]",–,5.09,5.60,6.77,6.75,6.51,5.05,6.28,GI50HL60 (HL-60 cells): 570 nM
"CCOC(=O)c1[nH]c(C)c2c1CCCCC2=O [Compound 8, Ethyl 3-methyl-4-oxo-2,4,5,6,7,8-hexahydrocyclohepta[c]pyrrole-1-carboxylate]",5.98,–,–,–,5.34,–,–,–,–
COc1ccc(S(=O)(=O)N2CCCCC2)cc1NC(=O)c1[nH]c(C)c2c1CCCCC2=O [Compound 15],–,6.24,5.74,7.09,7.33,6.36,5.46,6.52,–
"CCOC(=O)c1[nH]c(C)c2c1CCC=CC2=O [Compound 9, Ethyl 3-methyl-4-oxo-2,4,7,8-tetrahydrocyclohepta[c]pyrrole-1-carboxylate]",5.69,–,–,–,5.08,–,–,–,–
CNC(=O)c1[nH]c(C)c2c1CCCCC2=O [1″],5.29,–,–,–,5.19,–,–,–,–
CCN(CC)S(=O)(=O)c1ccc(O)c(NC(=O)c2[nH]c(C)c3c2CCCCC3=O)c1 [Compound 18],–,–,–,–,7.14,–,–,–,–
COc1ccc(S(=O)(=O)N2CCN(C)CC2)cc1NC(=O)c1[nH]c(C)c2c1CCCCC2=O [Compound 14],–,6.62,6.49,6.52,6.59,6.80,5.74,7.17,GI50HL60 (HL-60 cells): 2080 nM
COc1ccc(S(=O)(=O)N2CC3(COC3)C2)cc1NC(=O)c1[nH]c(C)c2c1CCCCC2=O [Compound 16],–,6.12,5.89,6.82,6.38,8.26,6.00,8.37,–

# Further lines, with some results ahead:
pKd (BRPF1B),pKd (CECR2),pKd (BRPF1),pKd (BRD4(1) [1]),pKd (BRD4(1) [2]),pKd (BRD7),pKd (EP300),pKd (BRD9),SMILES,further results
5.64,–,–,–,–,–,–,–,Cc1noc(-c2[nH]c(C)c3c2CCCCC3=O)n1 [Compound 22],–
5.70,–,–,–,–,–,–,–,Cc1[nH]c(-c2ccccc2)c2c1C(=O)CCCC2 [Compound 21],–
6.19,–,–,–,–,–,–,–,"Cc1[nH]c(-c2ccc3cc[nH]c3c2)c2c1C(=O)CCCC2 [Compound 24, 1-(1H-indol-6-yl)-3-methyl-5,6,7,8-tetrahydrocyclohepta[c]pyrrol-4(2H)-one]",degree of parasitemia (P. falciparum cultures): particularly effective
6.25,–,–,–,–,–,–,–,Cc1[nH]c(-c2cccc(N)c2)c2c1C(=O)CCCC2 [Compound 20],–
6.04,–,–,–,–,–,–,–,Cc1[nH]c(-c2cccc(O)c2)c2c1C(=O)CCCC2 [Compound 19],–
6.15,–,–,–,–,–,–,–,Cc1[nH]c(-c2cccc(C(N)=O)c2)c2c1C(=O)CCCC2 [Compound 25],–
